# Key:
# Cavia porcellus = experiment: In vivo ability to inhibit bronchoconstriction induced by GR-64349 (i.v.) in guinea pigs; format: functional
# Substance-K receptor [1] = molecular target: T1, Substance-K receptor (Rattus norvegicus, UniProt P16610); experiment: Binding affinity by displacement of radiolabeled GR-100679 from Tachykinin receptor 2 from homogenized rat colon
# T1 sequence (P16610 whole entry): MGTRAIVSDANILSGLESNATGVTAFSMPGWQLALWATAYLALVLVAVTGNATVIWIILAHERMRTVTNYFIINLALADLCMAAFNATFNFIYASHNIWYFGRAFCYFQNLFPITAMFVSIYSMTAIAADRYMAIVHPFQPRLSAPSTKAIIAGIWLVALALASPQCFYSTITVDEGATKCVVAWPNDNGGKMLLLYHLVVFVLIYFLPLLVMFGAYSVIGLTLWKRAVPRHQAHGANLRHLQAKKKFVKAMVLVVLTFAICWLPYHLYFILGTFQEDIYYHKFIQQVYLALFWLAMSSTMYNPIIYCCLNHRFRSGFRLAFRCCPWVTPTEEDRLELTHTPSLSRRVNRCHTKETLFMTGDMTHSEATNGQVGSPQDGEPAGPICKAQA
# [2] = molecular target: T2, Substance-K receptor (Cavia porcellus) (UniProt Q64077)
# T2 sequence (whole entry): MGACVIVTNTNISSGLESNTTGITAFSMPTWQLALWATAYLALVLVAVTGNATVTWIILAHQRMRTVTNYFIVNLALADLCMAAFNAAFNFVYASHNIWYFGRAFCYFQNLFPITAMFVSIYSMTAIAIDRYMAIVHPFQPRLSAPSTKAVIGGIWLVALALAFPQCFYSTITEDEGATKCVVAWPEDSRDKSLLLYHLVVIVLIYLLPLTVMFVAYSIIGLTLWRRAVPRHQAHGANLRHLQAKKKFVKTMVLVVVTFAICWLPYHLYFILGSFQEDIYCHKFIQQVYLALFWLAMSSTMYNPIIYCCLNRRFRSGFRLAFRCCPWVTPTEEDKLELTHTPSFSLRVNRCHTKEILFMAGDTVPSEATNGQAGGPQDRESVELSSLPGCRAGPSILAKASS
# Description: Binding affinity against NK2 receptor in guinea-pig trachea
# [3] = molecular target: T2, Substance-K receptor (Cavia porcellus); experiment: Binding affinity against Tachykinin receptor 2 in guinea-pig trachea
# Substance-K receptor [4] = molecular target: T3, Substance-K receptor (Homo sapiens, UniProt P21452); experiment: Binding affinity against Tachykinin receptor 2 of human expressed in chinese hamster ovary cells; format: cell-based, CHO
# T3 sequence (P21452 whole entry): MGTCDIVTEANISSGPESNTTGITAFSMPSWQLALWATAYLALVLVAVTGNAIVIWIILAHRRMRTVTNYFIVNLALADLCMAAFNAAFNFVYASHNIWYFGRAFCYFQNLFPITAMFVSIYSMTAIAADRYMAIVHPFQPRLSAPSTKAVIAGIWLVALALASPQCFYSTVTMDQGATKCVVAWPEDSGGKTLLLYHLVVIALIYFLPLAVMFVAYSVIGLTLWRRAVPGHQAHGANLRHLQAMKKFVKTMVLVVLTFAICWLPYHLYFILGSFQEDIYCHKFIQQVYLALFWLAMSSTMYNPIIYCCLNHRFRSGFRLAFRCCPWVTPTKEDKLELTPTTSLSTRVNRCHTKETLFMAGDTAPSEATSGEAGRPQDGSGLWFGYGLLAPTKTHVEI
# Neuromedin-K receptor = molecular target: T4, Neuromedin-K receptor (Cavia porcellus, UniProt P30098); experiment: Tested for inhibition of binding of [3H]senktide to Tachykinin receptor 3 in guinea pig cerebral cortex membranes; format: tissue-based, Membrane
# T4 sequence (P30098 whole entry): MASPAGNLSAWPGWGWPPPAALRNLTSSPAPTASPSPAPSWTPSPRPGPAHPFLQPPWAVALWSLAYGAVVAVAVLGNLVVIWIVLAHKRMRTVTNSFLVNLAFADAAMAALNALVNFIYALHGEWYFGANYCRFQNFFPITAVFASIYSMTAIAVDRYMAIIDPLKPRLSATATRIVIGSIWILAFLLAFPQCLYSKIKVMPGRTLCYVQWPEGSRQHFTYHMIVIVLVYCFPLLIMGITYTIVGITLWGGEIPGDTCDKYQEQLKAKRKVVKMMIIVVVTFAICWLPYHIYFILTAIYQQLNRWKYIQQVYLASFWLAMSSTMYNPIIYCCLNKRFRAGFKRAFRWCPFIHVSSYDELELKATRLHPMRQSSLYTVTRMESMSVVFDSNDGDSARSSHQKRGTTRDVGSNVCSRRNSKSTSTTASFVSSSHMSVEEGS
SMILES,Ki (Substance-K receptor [1]) [nM],also measured
[O-][S@+](CC1(O)CCN(CCc2c[nH]c3ccc(F)cc23)CC1)c1ccccc1 (stereo in doubt; 5),3.98,Dose (Cavia porcellus): 3 µM/kg
Cc1ccccc1OCC(O)CNCCc1c[nH]c2ccc(F)cc12 (stereo unspecified),1000,–
[O-][S@+](CC1(O)CCN(CCc2c[nH]c3ccc(F)cc23)CC1)c1ccccc1 (stereo in doubt; 8) [listing 1 of 2 here],–,pKB [2]: 8.7
Cc1ccccc1OCC1(O)CCN(CCc2c[nH]c3ccc(F)cc23)CC1,31.6,–
[O-][S+](CC1(O)CCN(CCc2c[nH]c3ccc(F)cc23)CC1)c1ccccc1 (stereo in doubt; 6) [4-BENZENESULFINYLMETHYL-1-[2-(5-FLUORO-1H-INDOL-3-YL)-ETHYL]-PIPERIDIN-4-OL (STRUCTURAL MIX)],0.501,–
[O-][S+](CC1(O)CCN(CCc2c[nH]c3ccc(F)cc23)CC1)c1ccccc1 (stereo in doubt; 9) [4-BENZENESULFINYLMETHYL-1-[2-(5-FLUORO-1H-INDOL-3-YL)-ETHYL]-PIPERIDIN-4-OL (STRUCTURAL MIX)],7.94,–
COC1(C[S@@+]([O-])c2ccccc2)CCN(CCc2c[nH]c3ccc(F)cc23)CC1,0.1,Dose (Cavia porcellus): 3 µM/kg; pKB [3]: 9.7; Ki (Substance-K receptor [4]): 0.316 nM; Ki (Neuromedin-K receptor): 20000 nM
[O-][S@+](CC1(O)CCN(CCc2c[nH]c3ccc(F)cc23)CC1)c1ccccc1 (stereo in doubt; 8) [listing 2 of 2 here],0.316,Ki (Neuromedin-K receptor): 39800 nM
O=S(=O)(CC1(O)CCN(CCc2c[nH]c3ccc(F)cc23)CC1)c1ccccc1,31.6,–
N#Cc1ccc2[nH]cc(CCN3CCC(NC(=O)c4ccccc4)CC3)c2c1,1580,–

# Source: ChEMBL document CHEMBL1127949, “GR159897 and related analogues as highly potent, orally active non-peptide neurokinin NK2 receptor antagonists” (Bioorg Med Chem Lett, 1994)
